# Measured values as given in US11484543B2, “Compositions and methods for diagnosing and treating diseases and disorders associated with mutant KCNJ5” (The Rockefeller University, priority 2017, dated 2022).
# Biological target: T1, KCNJ5^WT (Homo sapiens, UniProt P48544)
# T1 construct: expressed in transfected cells
# T1 sequence (P48544 1-419): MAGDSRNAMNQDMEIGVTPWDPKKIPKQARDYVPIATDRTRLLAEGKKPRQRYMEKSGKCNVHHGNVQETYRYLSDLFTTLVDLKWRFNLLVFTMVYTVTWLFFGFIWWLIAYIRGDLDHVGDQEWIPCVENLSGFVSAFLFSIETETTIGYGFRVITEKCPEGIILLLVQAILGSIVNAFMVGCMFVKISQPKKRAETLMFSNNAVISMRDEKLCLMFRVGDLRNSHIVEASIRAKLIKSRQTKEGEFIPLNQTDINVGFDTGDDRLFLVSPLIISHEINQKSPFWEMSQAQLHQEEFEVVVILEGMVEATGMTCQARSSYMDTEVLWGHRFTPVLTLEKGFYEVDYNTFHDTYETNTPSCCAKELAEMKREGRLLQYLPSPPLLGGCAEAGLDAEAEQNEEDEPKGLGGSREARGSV
# Experiment: Membrane potential assay (FLIPR dye) in inducible KCNJ5^WT HEK293 cells
# Format: cell-based
# Conditions: tested as in FIG. 7 (FIGS. 9 and 10)
substance,measurement,value
"N-demethyl-N-isobutyl-8,9-anhydroerythromycin A 6,9-hemiacetal [PLUX37]",inhibition of KCNJ5^WT by synthesized macrolide derivatives,no inhibition
